The source of these data is PubChem BioAssay (NCI).

What all share (test): NCI anticancer screen, dose series, 48 h
Test [1] concerns MDA-MB-435.
Test [2] has as its system HL-60(TB) leukemia.
The subject of test [3] is LOX IMVI melanoma.
Test [4] relates to UACC-62 melanoma.
The subject of test [5] is SF-268 CNS.
For test [6], the system named is MCF7 breast.
For test [7], the system named is 786-0 renal.
For test [8], the system named is PC-3 prostate.
For test [9], the system named is CCRF-CEM leukemia.
In test [10] the test system is HCC-2998 colon.

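Each compound was tested at five concentrations against cells in 96-well plates for 48 hours. GI50 is the concentration that inhibits growth by half. TGI denotes the concentration required for complete inhibition of growth.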

`Cn1c(=S)[nH]c(N)c(Cc2ccccc2)c1=O`: the TGI in test [1], in test [2], in test [3], in [4], in test [5] and in test [6] was more than 100 µM throughout. In addition, the TGI in [7], in [8], in [9] and in test [10] was more than 100 µM throughout.

With `COC(=O)[C@H](Cc1ccccc1)NC(=O)N(CCNC(=O)OC(C)(C)C)c1ccccc1`, the TGI in [1], in test [2], in [3], in test [4], in test [5] and in test [6] was more than 100 µM in each case. Besides, the TGI in test [7], in [8], in test [9] and in test [10] was more than 100 µM in each case.

For `COc1ccc2nc3cc(Cl)ccc3c(NCCCCCC(=O)NC(COc3ccc4ccc5cccnc5c4n3)COc3ccc4ccc5cccnc5c4n3)c2c1`, the TGI is more than 100 µM in [1]; 27.2 µM in test [2]; more than 100 µM in test [3]; 56.4 µM in [4]; 34.9 µM in [5]; 15.1 µM in [6]. Also, the TGI came out at 28.8 µM in test [7], 28.4 µM in test [8], 10.5 µM in test [9] and 28.1 µM in [10].

On to `c1ccc2c(c1)-c1ccccc1C2NC1=NCCO1`, for which the TGI in test [1] is 53 µM; in test [2], 48.5 µM; in [3], 48.3 µM; in test [4] it was 38.9 µM; in test [5] it was more than 100 µM; in test [6], 60.8 µM. For the same molecule, the TGI in test [7] was 84.5 µM; in test [8], 95.3 µM; in test [9] it was more than 100 µM; in [10], 33.3 µM.

In the case of `CCCCCCCCCCCCc1ccsc1-c1ccc(-c2ccc(-c3sccc3CCCCCCCCCCCC)s2)s1`, the TGI in test [1], in test [2], in test [3], in test [4], in test [5] and in [6] was more than 100 µM each time. The TGI in [7], in test [8], in [9] and in test [10] was more than 100 µM throughout.

In the case of `Cc1cc(N=Cc2c(CO)cnc(C)c2O)c(N=Cc2c(CO)cnc(C)c2O)cc1C`, the TGI in test [1], in [2], in test [3], in test [4], in test [5] and in [6] was more than 100 µM in each case. The TGI in test [7] was more than 100 µM; in [8] it was more than 100 µM; in [9], 80 µM; in test [10], more than 100 µM. In addition, the GI50 in test [2] was 0.0212 µM.

Regarding `N=c1oc2cc(O)ccc2cc1C(=O)Nc1cccc2ccccc12`, the TGI in [1] is 6.54 µM; in [2], 10.7 µM; in test [3], 18.4 µM; in [4] it was 14.3 µM; in test [5], 57.2 µM; in test [6], 17.8 µM. Further, the TGI in [7] was 17.3 µM; in [8], 10.2 µM; in test [9], more than 20.4 µM; in test [10] it was 12.9 µM.

`Cc1cccc(-c2nc(-c3cnccn3)n(Cc3ccccc3)n2)c1`: the TGI in test [1], in [2], in [3], in test [4], in [5] and in test [6] was more than 100 µM each time. In addition, the TGI in [7], in test [8], in test [9] and in test [10] was more than 100 µM throughout.

`C=C(C)[C@H]1CC(=O)[C@@]2(C)C[C@H]3O[C@]3(C)CC/C=C(\C)CC[C@H]12`: the TGI in [1] is more than 100 µM; in test [2], 75.2 µM; in [3], more than 100 µM; in test [4], 74.1 µM; in test [5], more than 100 µM; in test [6], 57.3 µM. Besides, the TGI was more than 100 µM in test [7], 86.2 µM in test [8], more than 100 µM in [9] and more than 100 µM in test [10].

`O=C(O)c1ccc(Nc2cnc3cc(C(F)(F)F)ccc3n2)cc1`: the TGI in [1] was more than 100 µM; in test [2], more than 100 µM; in test [3], more than 100 µM; in [4], 53.6 µM; in test [5] it was more than 100 µM; in test [6], more than 100 µM. The TGI in test [7] is more than 100 µM; in test [8], more than 100 µM; in test [9] it was more than 100 µM; in test [10] it was 80.7 µM.

In the case of `CCCCCCc1cc2cc(C(=O)Nc3cccc(F)c3)c(=N)oc2cc1O`, the TGI in test [1] came to 6.51 µM; in test [2] it was 5.33 µM; in [3], 3.41 µM; in test [4], 7.04 µM; in test [5], 10.6 µM; in [6] it was 11.7 µM. In addition, the TGI in test [7] was found to be 11.5 µM; in [8], 14 µM; in test [9], 4.97 µM; in test [10] it was 11.6 µM.
